Measured values reported in patent publication US20170176440A1, “METHODS AND COMPOSITIONS FOR EVALUATING BREAST CANCER PATIENTS” (THE BOARD OF REGENTS OF THE UNIVERSITY OF TEXAS SYSTEM, priority 2014, published 2017).
Residue numbers refer to the chain shown, from its start. In names and notes the source's numbering stands. One block for each molecule: values may come before it.

Experiments:
[1] = system: pY36 of ERβ in MDA-MB-231 cells; test: pY36 of endogenous ERβ in MDA-MB-231 cells treated with ERβ agonists; assay type: cell-based; conditions: agonists 10 nM, 2 hr (FIG. 19C)
[2] = system: p300 recruitment to ERβ target promoters MDA7 and MSMB; test: p300 ChIP at ERβ target promoters in Hs578T cells; assay type: cell-based; conditions: WT-ERβ-expressing Hs578T cells; E2 10 nM
Protocol: For ChIP experiments in the ERβ-inducible Hs578T cells, 100 ng/ml doxcycline was added for 24 hr. […] Cells were cross-linked with 1% formaldehyde for 10 min, treated with glycine at a final concentration of 0.125 M for 5 min at room temperature, and lysed in lysis buffer (5 mM HEPES pH 9.0, 85 mM KCl, 0.5% Triton X-100) for 15 min on ice. Nuclei were resuspended in nuclei lysis buffer (50 mM Tris-HCl pH 8.0, 10 mM EDTA, 1% SDS), and the cross-linked DNA was sonicated for 10 min (with a 30 s on/off cycle) using a Bioruptor sonicator (Diagenode). The supernatant was used for ChIP as previously described (Ding et al., Mol Cell., 2008, (31)347-59).

[3] = two completed and published clinical trials; cited from earlier work
[4] = target: T1, ERβ pY36-containing peptide SIYIPSS(pY)VDSHHE
T1 chain: SIYIPSSYVDSHHE

[5] = target: T2, Flag-ERβ (WT)
T2 chain: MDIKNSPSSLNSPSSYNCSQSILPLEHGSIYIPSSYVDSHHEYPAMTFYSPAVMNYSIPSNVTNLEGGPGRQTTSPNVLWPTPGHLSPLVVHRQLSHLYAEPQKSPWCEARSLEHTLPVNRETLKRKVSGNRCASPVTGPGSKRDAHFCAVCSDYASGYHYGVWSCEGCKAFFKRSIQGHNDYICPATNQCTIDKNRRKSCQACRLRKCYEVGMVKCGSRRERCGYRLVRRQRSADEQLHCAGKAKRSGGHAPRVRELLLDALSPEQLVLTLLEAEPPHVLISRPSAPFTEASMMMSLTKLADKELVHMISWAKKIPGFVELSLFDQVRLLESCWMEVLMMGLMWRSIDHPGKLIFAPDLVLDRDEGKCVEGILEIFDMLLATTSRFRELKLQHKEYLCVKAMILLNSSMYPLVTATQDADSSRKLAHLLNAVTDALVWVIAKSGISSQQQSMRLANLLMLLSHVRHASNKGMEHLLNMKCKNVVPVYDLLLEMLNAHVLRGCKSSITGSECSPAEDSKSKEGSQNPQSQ

[6] = target: T3, p300 (UniProt Q09472 2-2414, limits assumed); test: co-IP of Flag-ERβ with endogenous p300 in HEK293T cells
T3 construct: also called endogenous p300
T3 sequence (Q09472 2-2414 limits assumed): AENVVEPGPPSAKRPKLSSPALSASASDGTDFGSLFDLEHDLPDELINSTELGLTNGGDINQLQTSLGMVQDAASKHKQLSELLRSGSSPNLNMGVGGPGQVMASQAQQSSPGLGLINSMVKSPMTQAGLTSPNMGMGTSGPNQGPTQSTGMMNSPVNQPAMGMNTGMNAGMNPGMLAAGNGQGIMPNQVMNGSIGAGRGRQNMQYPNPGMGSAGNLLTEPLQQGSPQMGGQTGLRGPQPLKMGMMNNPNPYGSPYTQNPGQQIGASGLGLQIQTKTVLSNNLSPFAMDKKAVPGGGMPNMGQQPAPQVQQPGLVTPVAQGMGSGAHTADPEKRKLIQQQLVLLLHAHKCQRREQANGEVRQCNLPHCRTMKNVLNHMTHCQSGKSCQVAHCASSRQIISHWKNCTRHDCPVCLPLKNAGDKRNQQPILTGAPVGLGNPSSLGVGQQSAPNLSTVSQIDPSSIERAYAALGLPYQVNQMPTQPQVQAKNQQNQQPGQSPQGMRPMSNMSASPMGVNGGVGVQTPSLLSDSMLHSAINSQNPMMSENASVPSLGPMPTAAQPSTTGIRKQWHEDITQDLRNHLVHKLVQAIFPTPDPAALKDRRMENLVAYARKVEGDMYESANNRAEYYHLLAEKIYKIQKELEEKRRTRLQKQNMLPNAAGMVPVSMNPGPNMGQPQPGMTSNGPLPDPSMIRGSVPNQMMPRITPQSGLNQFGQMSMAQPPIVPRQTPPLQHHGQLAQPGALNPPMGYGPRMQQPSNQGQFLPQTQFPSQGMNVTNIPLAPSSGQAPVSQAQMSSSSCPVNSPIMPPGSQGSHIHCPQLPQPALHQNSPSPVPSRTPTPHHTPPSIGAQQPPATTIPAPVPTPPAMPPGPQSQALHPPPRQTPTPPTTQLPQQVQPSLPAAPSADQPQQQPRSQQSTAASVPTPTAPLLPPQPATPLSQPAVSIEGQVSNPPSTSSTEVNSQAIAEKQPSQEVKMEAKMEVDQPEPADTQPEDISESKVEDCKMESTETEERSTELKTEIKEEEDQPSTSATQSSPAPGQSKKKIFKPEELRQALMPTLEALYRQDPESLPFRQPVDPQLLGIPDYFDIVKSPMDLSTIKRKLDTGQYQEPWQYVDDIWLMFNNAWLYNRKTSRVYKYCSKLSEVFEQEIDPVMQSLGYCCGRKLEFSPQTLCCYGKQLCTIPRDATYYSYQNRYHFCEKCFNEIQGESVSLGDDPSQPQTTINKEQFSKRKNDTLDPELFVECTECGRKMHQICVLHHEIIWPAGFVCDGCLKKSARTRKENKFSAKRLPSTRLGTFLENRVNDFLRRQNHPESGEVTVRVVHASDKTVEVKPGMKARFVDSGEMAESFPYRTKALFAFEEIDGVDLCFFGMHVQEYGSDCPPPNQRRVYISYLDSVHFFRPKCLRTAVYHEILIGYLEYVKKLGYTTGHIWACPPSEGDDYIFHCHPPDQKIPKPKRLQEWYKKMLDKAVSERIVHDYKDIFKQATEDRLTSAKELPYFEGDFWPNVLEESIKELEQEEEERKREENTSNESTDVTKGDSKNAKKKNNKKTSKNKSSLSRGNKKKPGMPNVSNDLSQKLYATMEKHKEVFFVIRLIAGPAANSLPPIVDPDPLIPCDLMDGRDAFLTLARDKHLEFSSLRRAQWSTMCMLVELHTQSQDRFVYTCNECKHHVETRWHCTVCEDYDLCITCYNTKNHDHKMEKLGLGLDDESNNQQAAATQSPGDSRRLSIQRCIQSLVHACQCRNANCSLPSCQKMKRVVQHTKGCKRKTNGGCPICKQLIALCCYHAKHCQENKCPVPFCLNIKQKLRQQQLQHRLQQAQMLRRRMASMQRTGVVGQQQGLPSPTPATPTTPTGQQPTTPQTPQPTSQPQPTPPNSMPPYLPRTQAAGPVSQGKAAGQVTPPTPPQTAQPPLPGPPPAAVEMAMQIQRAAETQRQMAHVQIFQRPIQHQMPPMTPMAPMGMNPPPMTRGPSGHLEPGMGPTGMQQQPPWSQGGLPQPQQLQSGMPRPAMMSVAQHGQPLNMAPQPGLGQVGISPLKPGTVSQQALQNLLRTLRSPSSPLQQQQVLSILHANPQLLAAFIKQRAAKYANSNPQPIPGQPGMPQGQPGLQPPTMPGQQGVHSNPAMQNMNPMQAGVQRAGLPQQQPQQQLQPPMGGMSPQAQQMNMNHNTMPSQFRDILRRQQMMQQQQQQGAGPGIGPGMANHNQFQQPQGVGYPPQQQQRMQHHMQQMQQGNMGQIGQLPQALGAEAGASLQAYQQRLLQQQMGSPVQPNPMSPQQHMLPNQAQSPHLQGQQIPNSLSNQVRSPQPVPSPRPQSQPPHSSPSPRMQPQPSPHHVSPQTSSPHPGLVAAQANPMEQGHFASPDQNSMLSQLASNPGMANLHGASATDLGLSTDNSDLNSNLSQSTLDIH

Molecule: N#CC(Cc1ccc(O)cc1)c1ccc(O)cc1 (stereo not drawn) [DPN, diarylpropionitrile]
ERβ phosphorylation (pY36) [1]: enhanced

Molecule: C[C@]12CC[C@@H]3c4ccc(O)cc4CC[C@H]3[C@@H]1CC[C@@H]2O [E2, 17-β-estradiol]
ERβ phosphorylation (pY36) [1]: enhanced | recruitment of p300 to the ERβ target promoters [2]: stimulated cyclic recruitment of p300

Molecule: Oc1ccc([C@H]2COc3cc(O)ccc3C2)cc1 [S-equol]
ERβ phosphorylation (pY36) [1]: enhanced | safety and drug tolerance [3]: has been demonstrated

B1: GST-EYA2 (protein)
chain: MVELVISPSLTVNSDCLDKLKFNRADAAVWTLSDRQGITKSAPLRVSQLFSRSCPRVLPRQPSTAMAAYGQTQYSAGIQQATPYTAYPPPAQAYGIPSYSIKTEDSLNHSPGQSGFLSYGSSFSTSPTGQSPYTYQMHGTTGFYQGGNGLGNAAGFGSVHQDYPSYPGFPQSQYPQYYGSSYNPPYVPASSICPSPLSTSTYVLQEASHNVPNQSSESLAGEYNTHNGPSTPAKEGDTDRPHRASDGKLRGRSKRSSDPSPAGDNEIERVFVWDLDETIIIFHSLLTGTFASRYGKDTTTSVRIGLMMEEMIFNLADTHLFFNDLEDCDQIHVDDVSSDDNGQDLSTYNFSADGFHSSAPGANLCLGSGVHGGVDWMRKLAFRYRRVKEMYNTYKNNVGGLIGTPKRETWLQLRAELEALTDLWLTHSLKALNLINSRPNCVNVLVTTTQLIPALAKVLLYGLGSVFPIENIYSATKTGKESCFERIMQRFGRKAVYVVIGDGVEEEQGAKKHNMPFWRISCHADLEALRHALELEYL
in vitro tyrosine phosphatase assay (release of free phosphate, Malachite Green) [4]: A pY36-containing ERβ peptide that can be dephosphorylated efficiently by recombinant WT-EYA2 | in vitro dephosphorylation of immunoprecipitated Flag-ERβ, pY36 immunoblot [5]: recombinant WT, but not mutant EYA2 completely eliminated the pY36 signal of ERβ in vitro

binding result [6]: binds
B2: Flag-ERβ (WT) (receptor)
chain: T2 chain
modifications: phosphotyrosine at 36 (pY36), as phosphorylated in HEK293T cells
notes: Expressed in HEK293T cells and immunoprecipitated by the Flag tag; also called WT-ERβ; Flag-tagged WT ERβ; not shown: Flag tag

binding result [6]: binds
B3: Flag-ERβ Y36E (receptor)
chain: T2 chain with Y36E
notes: Expressed in HEK293T cells; also called Y36E-ERβ; Y36E mutant; not shown: Flag tag
